The source of these data is patent US10813935B2, “Methods and compositions for treating drug resistance in cancer” (UNIVERSITY OF SOUTH FLORIDA, priority 2017, dated 2020).

Assay [1] relates to H1975, H1650 and H1299 human lung cancer cell lines (parental and drug resistant). Put plainly: Drug sensitivity in parental and DR cell lines, Cell Titer Glo cell viability. Format: cell-based. As for the experimental part: To investigate drug resistance to EGFR TKIs, we developed lapatinib resistant human lung cancer cell lines as model for de novo drug resistance. To derive drug resistant (DR) cells, H1975 human lung cancer cells, that carry L858R and T790M point mutations in exons 20 and 21 of EGFR, were grown in a static concentration of lapatinib for up to 30 days. We also developed EGFR TKI resistant H1650 and H1299 human lung cancer cell lines to confirm any potential findings in cell lines with different EGFR mutations, thereby enhancing the reproducibility and relevance of the work. The drug sensitivity of the parental and DR cells on both the monolayer and the 3D scaffold were determined by testing a panel of standard-of-care chemotherapeutics along with EGFR TKIs. Drug sensitivity in parental- and DR-cell lines were determined. Cells were treated in triplicates with indicated concentrations of the identified drug for 72 hours in monolayer cultures and for 48 hours in scaffold cultures. For cells grown on the scaffold, drugs were added on day 3, as compared to 24 hours for monolayer. Cell viability was determined using Cell Titer Glo assay (Promega). Average luminescence as a percentage of control in lapatinib treated cultures on the monolayer (Blue) and the scaffold (Red) is shown. Experiments were repeated at least two times. […]

A further assay relates to p-EGFR. Put plainly: Western blot of whole cell lysates (cleaved EGFR, p-EGFR, CYP51A1) after drug treatment. Format: cell-based, human. To be noted: treated 48 hours. As to the method:
Cells were treated with lapatinib or ketoconazole for 48 hours. The expression of cleaved EGFR, p-EGFR, CYP51A1 were examined using western blotting of the whole cell lysates. β-Actin was included as a loading control.
A general note: In western blotting, separated proteins are transferred to a membrane and probed.

In a further assay the test system is H1650 cells. As to the kind of experiment: Development of lapatinib resistance in parental H1650 cells, bright field microscopy. It is filed as cell-based, human. As to conditions: drugs added at plating, 72 hours. As for the experimental part:
Drug-resistant cells (DR) were compared to parental cell lines. 500,000 H1650 cells were plated in 1 well of a 6-well plate and treated with the indicated drugs at the time of plating. They were allowed to grow for 72 hours.

Structures are written as SMILES.

As to `Nc1ccn([C@@H]2O[C@H](CO)[C@@H](O)C2(F)F)c(=O)n1` [gemcitabine], the “resistance of EGFR TKI resistant cells to other anti-cancer agents” value in assay [1] is listed as “resistant”.
Consider `CC(=O)N1CCN(c2ccc(OCC3COC(Cn4ccnc4)(c4ccc(Cl)cc4Cl)O3)cc2)CC1` (centres unmarked) [ketoconazole], for which, in the assay with p-EGFR (H1650-DR cells, western blot), the “p-EGFR in the H1650-DR cells” value is “inhibited p-EGFR”. Further, the EGFR downstream signaling result with p-EGFR (western blot of whole cell lysates) is recorded as “induced lowering of EGFR downstream signaling”. The “development of lapatinib resistance in parental H1650 cells” value in the assay on H1650 cells is on record as “alleviated development of lapatinib resistant”.
Consider `CC(=O)O[C@H]1C(=O)[C@@]2(C)[C@H]([C@H](OC(=O)c3ccccc3)[C@]3(O)C[C@H](OC(=O)[C@H](O)[C@@H](NC(=O)c4ccccc4)c4ccccc4)C(C)=C1C3(C)C)[C@]1(OC(C)=O)CO[C@@H]1C[C@@H]2O` [taxol], for which the “resistance of EGFR TKI resistant cells to other anti-cancer agents” value in assay [1] is “resistant”.
